The record followed here is patent US10377791B2, “Therapeutically active estratrienthiazole derivatives as inhibitors of 17 B-hydroxysteroid dehydrogenase, type 1” (FORENDO PHARMA LTD, priority 2013, dated 2019).

The target of experiment [1] is T1, recombinant human 17β-HSD1 (Homo sapiens, UniProt P14061).
T1 construct: made in house; host or cells: Sd9 (Sf9) insect cells, baculovirus (Bac to Bac Expression System)
T1 sequence (P14061 1-328): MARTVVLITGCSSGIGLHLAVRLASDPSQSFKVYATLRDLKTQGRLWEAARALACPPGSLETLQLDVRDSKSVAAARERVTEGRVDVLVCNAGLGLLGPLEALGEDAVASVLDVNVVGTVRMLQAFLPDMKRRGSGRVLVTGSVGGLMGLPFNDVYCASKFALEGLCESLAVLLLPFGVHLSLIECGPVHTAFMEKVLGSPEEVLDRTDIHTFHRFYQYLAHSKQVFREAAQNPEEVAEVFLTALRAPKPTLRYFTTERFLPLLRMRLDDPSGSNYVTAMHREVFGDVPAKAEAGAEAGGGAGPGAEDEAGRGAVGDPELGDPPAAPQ
The experiment is described as follows: Inhibition of recombinant human 17β-HSD1. Format: biochemical. The conditions noted are these: for inhibition at 1 µM: read-out: 17β-HDS1 Inhibition % at 1 μM. The protocol:
Recombinant baculovirus was generated by the “Bac to Bac Expression System” (Invitrogen). Recombinant bacmid was transfected to Sd9 insect cells using “Cellfectin Reagent” (Invitrogen). 60 h later cells were harvested; the microsomal fraction was isolated as described by Puranen, T. J., Poutanen, M. H., Peltoketo, H. E., Vihko, P. T. and Vihko, R. K. (1994) Site-directed mutagenesis of the putative active site of human 17 β-hydroxysteroid dehydrogenase type 1. Biochem. J. 304: 289-293. Aliquots were stored frozen until determination of enzymatic activity.
Recombinant protein (1 μg/ml) was incubated in 20 mM KH2PO4 pH 7.4 with 30 nM estrone (including 800 000 cpm/ml of ^3H-estrone) and 1 mM NADPH for 30 min at RT, in the presence of the potential inhibitor at concentrations 1 μM or 0.1 μM. Inhibitor stock solutions were prepared in DMSO. Final concentration of DMSO was adjusted to 1% in all samples. The enzyme reaction was stopped by addition of 10% trichloroacetic acid (final concentration). Samples were centrifuged in a microtiter plate at 4000 rpm for 10 min. Supernatants were applied to reverse phase HPLC on a Waters Symmetry C18 column, equipped with a Waters Sentry Guard column. Isocratic HPLC runs were performed at RT at a flow rate of 1 ml/min in acetonitrile:water 48:52 as running solvent. Radioactivity was monitored in the eluate by a Packard Flow Scintillation Analyzer. Total radioactivity for estrone and estradiol were determined in each sample and percent conversion of estrone to estradiol was calculated according to the following formula:
(§1) [formula] Percent inhibition was calculated flowingly: % inhibition=100−% conversion

In experiment [2] the target is T2, recombinant human 17β-HSD2 (Homo sapiens, UniProt P37059).
T2 construct: made in house; host or cells: Sd9 (Sf9) insect cells, baculovirus (Bac to Bac Expression System)
T2 sequence (P37059 1-387): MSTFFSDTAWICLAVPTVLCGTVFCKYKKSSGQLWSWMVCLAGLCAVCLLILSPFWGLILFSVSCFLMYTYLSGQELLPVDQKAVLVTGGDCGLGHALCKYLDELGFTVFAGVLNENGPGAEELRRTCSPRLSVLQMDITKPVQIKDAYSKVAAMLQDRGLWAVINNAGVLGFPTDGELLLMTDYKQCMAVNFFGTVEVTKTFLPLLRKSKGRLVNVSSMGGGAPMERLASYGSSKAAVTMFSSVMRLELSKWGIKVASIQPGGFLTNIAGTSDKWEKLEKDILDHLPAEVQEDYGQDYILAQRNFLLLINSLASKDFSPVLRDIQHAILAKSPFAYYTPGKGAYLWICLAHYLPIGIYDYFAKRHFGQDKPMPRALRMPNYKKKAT
Description: Inhibition of recombinant human 17β-HSD2. Format: biochemical. The conditions noted are these: for inhibition at 1 µM: read-out: 17β-HSD2 Inhibition % at 1 μM. The protocol:
Similarly to 17β-HSD1 the Recombinant baculovirus was generated by the “Bac to Bac Expression System” (Invitrogen). Recombinant bacmid was transfected to Sd9 insect cells using “Cellfectin Reagent” (Invitrogen). 60 h later cells were harvested and supernatant were fractionated by the following protocol: • cells were dissolved into 40 ml of A-buffer (40 mM TRIS, pH8.0, 20% glycerol, 20 μM NAD, 0.4 mM PMSF, 150 mM NaCl, 0.5% dodecyl-β-maltoside+protease inhibitor cocktail) • cells were sonicated • lysate was incubated on ice for 15 min • lysate was centrifuged 5000 rpm 15 min, +4° C. • centrifugation of the supernatant 180 000 g 30 min, +4° C. • pellet was dissolved into 8 ml of A-buffer • not resuspended material was removed by centrifugation 5000 rpm 15 min, +4° C. • the clear supernatant was divided into 100 μl aliquots and were stored frozen until determination of enzymatic activity.
The amount of 17β-HSD2 was analysed by immunoblotting and total protein concentration of each extract batch was determined.
Recombinant protein (4 μg/ml) was incubated in 20 mM KH2PO4 pH 8.5 with 50 nM estradiol (including 800 000 cpm/ml of ^3H-estradiol) and 1 mM NADH for 30 min at RT, in the presence of the potential inhibitor at concentrations 1 μM or 0.1 μM. Inhibitor stock solutions were prepared in DMSO. Final concentration of DMSO was adjusted to 1% in all samples. The enzyme reaction was stopped by addition of 10% trichloroacetic acid (final concentration). Samples were centrifuged in a microtiter plate at 4000 rpm for 10 min. Supernatants were applied to reverse phase HPLC on a Waters Symmetry C18 column, equipped with a Waters Sentry Guard column. Isocratic HPLC runs were performed at RT at a flow rate of 1 ml/min in acetonitrile:water 48:52 as running solvent. Radioactivity was monitored in the eluate by a Packard Flow Scintillation Analyzer. Total radioactivity for estrone and estradiol were determined in each sample and percent conversion of estradiol to estrone was calculated according to the following formula:
as §1

Where [3] appears, read: inhibitor at 1 μM, 30 nM estrone, 1 mM NADPH, 30 min at RT.
[4] abbreviates: inhibitor at 1 μM, 50 nM estradiol, 1 mM NADH, 30 min at RT.

SMILES strings stand for the structures. Values joined by “and” are separate entries in the source; they are usually repeats but may differ in a detail not shown here. Equal values may be shown once. Where a name gives a salt, the structure may show the parent alone. Read-outs that look alike come from different tables or passages of the source.

The term inhibition denotes the relative decrease from the control value, in per cent. `CC(=O)Oc1ccc2c(c1)CCC1C2CC[C@]2(C)C(=O)C[C@@H](CCC(=O)Nc3ncc(C)s3)C12` (stereo partly drawn) [Compound 1, Acetic acid (13S,15R)-13-methyl-15-[2-(5-methylthiazol-2-ylcarbamoyl)-ethyl]-17-oxo-7,8,9,11,12,13,14,15,16,17-decahydro-6H-cyclopenta[a]phenanthren-3-yl ester]: the inhibition at 1 µM in experiment [1] (setting [3]) is 92%; in experiment [2] (setting [4]), 13%.

Turning to `Cc1cnc(NC(=O)CC[C@@H]2CC(=O)[C@@]3(C)CCC4c5ccc(OS(N)(=O)=O)cc5CCC4C23)s1` (stereo partly drawn) [Compound 4, Sulphamic acid (13S,15R)-13-methyl-15-[2-(5-methylthiazol-2-ylcarbamoyl)-ethyl]-17-oxo-7,8,9,11,12,13,14,15,16,17-decahydro-6H-cyclopenta[a]phenanthren-3-yl ester], the values for the inhibition at 1 µM in experiment [1] (setting [3]) and in experiment [2] (setting [4]) were 82% and 3%, respectively.

Take `Cc1cnc(NC(=O)CC[C@@H]2CC(=O)[C@@]3(C)CCC4c5ccc(OP(=O)(O)O)cc5CCC4C23)s1` (stereo partly drawn) [Compound 7, Phosphoric acid mono-{(13S,15R)-13-methyl-15-[2-(5-methylthiazol-2-ylcarbamoyl)-ethyl]-17-oxo-7,8,9,11,12,13,14,15,16,17-decahydro-6H-cyclopenta[a]phenanthren-3-yl} ester]: the inhibition at 1 µM in experiment [1] (setting [3]) is 80%. Besides, in experiment [2] (setting [4]), the “17β-HSD2 Inhibition % at 1 μM” value is on record as 3%.

For `Cc1cnc(NC(=O)CC[C@@H]2CC(=O)[C@@]3(C)CCC4c5ccc(OP(=O)([O-])[O-])cc5CCC4C23)s1.[Na+].[Na+]` (stereo partly drawn) [Compound 8, Phosphoric acid mono-{(13S,15R)-13-methyl-15-[2-(5-methylthiazol-2-ylcarbamoyl)-ethyl]-17-oxo-7,8,9,11,12,13,14,15,16,17-decahydro-6H-cyclopenta[a]phenanthren-3-yl} ester disodium salt], in experiment [1] (setting [3]), the “17β-HDS1 Inhibition % at 1 μM” value stood at 81%. In addition, the “17β-HSD2 Inhibition % at 1 μM” value in experiment [2] (setting [4]) is 0%.

As for `Cc1cnc(NC(=O)CC[C@@H]2CC(=O)[C@@]3(C)CCC4c5ccc(OC(=O)CCC(=O)O)cc5CCC4C23)s1` (stereo partly drawn) [Compound 10, Succinic acid mono-{(13S,15R)-13-methyl-15-[2-(5-methylthiazol-2-ylcarbamoyl)-ethyl]-17-oxo-7,8,9,11,12,13,14,15,16,17-decahydro-6H-cyclopenta[a]phenanthren-3-yl} ester sodium salt], the inhibition at 1 µM in experiment [1] (setting [3]) was 98%; in experiment [2] (setting [4]) it was 1%.

With `CC(=O)NCC(=O)Oc1ccc2c(c1)CCC1C2CC[C@]2(C)C(=O)C[C@@H](CCC(=O)Nc3ncc(C)s3)C12` (stereo partly drawn) [Compound 11, Acetylamino-acetic acid (13S,15R)-13-methyl-15-[2-(5-methylthiazol-2-ylcarbamoyl)-ethyl]-17-oxo-7,8,9,11,12,13,14,15,16,17-decahydro-6H-cyclopenta[a]phenanthren-3-yl ester], in experiment [1] (setting [3]), the “17β-HDS1 Inhibition % at 1 μM” value turned out to be 88% and the inhibition at 1 µM worked out at 87%. In experiment [2] (setting [4]), the “17β-HSD2 Inhibition % at 1 μM” value was 0% and 2%.

On to `Cc1cnc(NC(=O)CC[C@@H]2CC(=O)[C@@]3(C)CCC4c5ccc(OC(=O)CNC(=O)OC(C)(C)C)cc5CCC4C23)s1` (stereo partly drawn) [Compound 15, tert-Butoxycarbonylamino-acetic acid (13S,15R)-13-methyl-15-[2-(5-methylthiazol-2-ylcarbamoyl)-ethyl]-17-oxo-7,8,9,11,12,13,14,15,16,17-decahydro-6H-cyclopenta[a]phenanthren-3-yl ester], for which the inhibition at 1 µM in experiment [1] (setting [3]) came out at 66%; in experiment [2] (setting [4]) it was 0%.

For the compound `Cc1cnc(NC(=O)CC[C@@H]2CC(=O)[C@@]3(C)CCC4c5ccc(OC(=O)CN)cc5CCC4C23)s1` (stereo partly drawn) [Compound 16, Amino-acetic acid (13S,15R)-13-methyl-15-[2-(5-methylthiazol-2-ylcarbamoyl)-ethyl]-17-oxo-7,8,9,11,12,13,14,15,16,17-decahydro-6H-cyclopenta[a]phenanthren-3-yl ester], the inhibition at 1 µM was found to be 93% in experiment [1] (setting [3]) and 0% in experiment [2] (setting [4]).

Turning to `CC(=O)Oc1ccccc1C(=O)Oc1ccc2c(c1)CCC1C2CC[C@]2(C)C(=O)C[C@@H](CCC(=O)Nc3ncc(C)s3)C12` (stereo partly drawn) [Compound 19, 2-Acetoxy-benzoic acid (13S,15R)-13-methyl-15-[2-(5-methylthiazol-2-ylcarbamoyl)-ethyl]-17-oxo-7,8,9,11,12,13,14,15,16,17-decahydro-6H-cyclopenta[a]phenanthren-3-yl ester], the results for the inhibition at 1 µM in experiment [1] (setting [3]) and in experiment [2] (setting [4]) were 58% and 0%, respectively.

As for `CCOC(=O)Oc1ccc2c(c1)CCC1C2CC[C@]2(C)C(=O)C[C@@H](CCC(=O)Nc3ncc(C)s3)C12` (stereo partly drawn) [Compound 20, Ethyl ((13S,15R)-13-methyl-15-(3-((5-methylthiazol-2-yl)amino)-3-oxopropyl)-17-oxo-7,8,9,11,12,13,14,15,16,17-decahydro-6H-cyclopenta[a]phenanthren-3-yl) carbonate], the inhibition at 1 µM in experiment [1] (setting [3]) is 52%; in experiment [2] (setting [4]), 0%.

For `Cc1cnc(NC(=O)CC[C@@H]2CC(=O)[C@@]3(C)CCC4c5ccc(OS(=O)(=O)N(C)C)cc5CCC4C23)s1` (stereo partly drawn) [Compound 23, Dimethyl-sulphamic acid (13S,15R)-13-methyl-15-[2-(5-methylthiazol-2-ylcarbamoyl)-ethyl]-17-oxo-7,8,9,11,12,13,14,15,16,17-decahydro-6H-cyclopenta[a]phenanthren-3-yl ester], the inhibition at 1 µM amounted to 74% in experiment [1] (setting [3]) and 6% in experiment [2] (setting [4]).

On to `Cc1cnc(NC(=O)CC[C@@H]2CC(=O)[C@@]3(C)CCC4c5ccc(OC(=O)N(C)C)cc5CCC4C23)s1` (stereo partly drawn) [Compound 25, Dimethyl-carbamic acid (13S,15R)-13-methyl-15-[2-(5-methylthiazol-2-ylcarbamoyl)-ethyl]-17-oxo-7,8,9,11,12,13,14,15,16,17-decahydro-6H-cyclopenta[a]phenanthren-3-yl ester], for which the inhibition at 1 µM in experiment [1] turned out to be 52%; in experiment [2] it was 6%.
